# How the values were obtained:
# [1] = test system: Setaria faberi; assay: Herbicidal activity against Setaria faberi (Giant Foxtail) assessed as weed control at 30 g/ha under greenhouse measured after 21 days by post-emergence test; format: functional
# [2] = test system: Alopecurus myosuroides; assay: Herbicidal activity against Alopecurus myosuroides assessed as weed control at 30 g/ha under greenhouse measured after 21 days by post-emergence test; format: functional
# [3] = test system: Hordeum vulgare; assay: Herbicidal activity against Hordeum vulgare (barley) assessed as weed control at 30 g/ha under greenhouse measured after 21 days by post-emergence test; format: functional
# [4] = test system: Avena fatua; assay: Herbicidal activity against Avena fatua assessed as weed control at 30 g/ha under greenhouse measured after 21 days by post-emergence test; format: functional
# [5] = test system: Triticum aestivum; assay: Herbicidal activity against Triticum aestivum (wheat) assessed as weed control at 30 g/ha under greenhouse measured after 21 days by post-emergence test; format: functional
# [6] = test system: Lolium perenne; assay: Herbicidal activity against Lolium perenne (perennial ryegrass) assessed as weed control at 30 g/ha under greenhouse measured after 21 days by post-emergence test; format: functional
# [7] = Aqueous hydrolysis of the compound at pH 7 at 20 degC; format: physicochemical; conditions: aqueous solution, read-out: DT50 (converted)
# [8] = Solubility in water at pH5 at 20 degC; format: physicochemical; conditions: pH 5
# [9] = Aqueous hydrolysis of the compound at pH 9 at 20 degC; format: physicochemical; conditions: aqueous solution, read-out: DT50 (converted)
# [10] = Aqueous hydrolysis of the compound at pH 5 at 20 degC; format: physicochemical; conditions: aqueous solution, read-out: DT50 (converted)
# [11] = Lipophilicity, log P of the compound at pH7 at 20 degC; format: physicochemical; conditions: buffer, pH 7
# [12] = Solubility in water at pH7 at 20 degC; format: physicochemical; conditions: pH 7
# [13] = Aqueous hydrolysis of the compound at pH 4 at 20 degC; format: physicochemical; conditions: aqueous solution, read-out: DT50 (converted)
# [14] = Lipophilicity, log P of the compound at pH5 at 20 degC; format: physicochemical; conditions: buffer, pH 5
# [15] = Dissociation constant, pKa of the compound; format: physicochemical
Structure (SMILES),Activity [1],Activity [2],Activity [3],Activity [4],Activity [5],Activity [6],half-life [7],solubility [8],half-life [9],half-life [10],logD [11],solubility [12],half-life [13],logD [14],pKa [15]
Cc1cc(C)c(C2C(=O)N3CCOCCN3C2=O)c(C)c1,50%,10%,0%,60%,0%,80%,,,,,,,,,
CC#Cc1cc(C)cc(C)c1C1C(=O)N2CCOCCN2C1=O,40%,0%,10%,40%,10%,60%,,,,,,,,,
CCc1cc(C)cc(CC)c1C1C(=O)N2CC(C)OC(C)CN2C1=O (centres undefined),90%,50%,0%,90%,0%,80%,,,,,,,,,
CCc1cc(C)cc(C)c1C1C(=O)N2CCOCCN2C1=O,60%,60%,40%,80%,20%,60%,,,,,,,,,
CCCc1cc(C)cc(C)c1C1C(=O)N2CCOCCN2C1=O,40%,20%,0%,80%,0%,60%,,,,,,,,,
CCCc1cc(C)cc(CCC)c1C1C(=O)N2CCOCCN2C1=O,90%,50%,0%,80%,0%,0%,,,,,,,,,
C#Cc1cc(C)cc(C#C)c1C1C(=O)N2CCOCCN2C1=O,90%,80%,20%,90%,20%,80%,,,,,,,,,
CCc1cc(-c2ccccc2)cc(OC)c1C1C(=O)N2CCOCCN2C1=O,90%,80%,90%,100%,90%,90%,,,,,,,,,
CCc1cc(C)cc(CC)c1C1C(=O)N2CCC(O)CCN2C1=O,90%,100%,40%,100%,80%,90%,,,,,,,,,
Cc1cc(Br)c(C2C(=O)N3CCOCCN3C2=O)c(Br)c1,10%,0%,0%,40%,0%,10%,,,,,,,,,
CCc1cc(C)cc(CC)c1C1C(=O)N2CCOC(CC)CN2C1=O (centres undefined),20%,20%,0%,40%,0%,80%,,,,,,,,,
CCc1cc(-c2ccccc2)cc(CC)c1C1C(=O)N2CCOCCN2C1=O,80%,90%,80%,90%,80%,80%,,,,,,,,,
CCc1cc(C)cc(OC)c1C1C(=O)N2CCOCCN2C1=O,100%,90%,50%,90%,50%,80%,,,,,,,,,
CCc1cc(C)c(C2C(=O)N3CCOCCN3C2=O)c(CC)c1,60%,0%,0%,50%,0%,60%,,,,,,,,,
CCc1cc(C)cc(CC)c1C1C(=O)N2CCOCCN2C1=O [PINOXADEN DIONE],90%,100%,0%,100%,10%,90%,< 24 h,5200 µg/mL,< 24 h,< 24 h,-1.1,> 300000 µg/mL,< 24 h,0.62,3.82
CCc1cc(C)cc(CC)c1C1C(=O)N2C(C)COCC(C)N2C1=O (centres undefined),80%,60%,0%,50%,0%,40%,,,,,,,,,
C#Cc1cc(C)cc(CC)c1C1C(=O)N2CCOCCN2C1=O,100%,100%,50%,100%,50%,100%,,,,,,,,,
Cc1cc(C)c(C2C(=O)N3CCOCCN3C2=O)c(C(C)C)c1,20%,0%,0%,50%,0%,50%,,,,,,,,,

Structure (SMILES),Activity [1],Activity [2],Activity [3],Activity [4],Activity [5],Activity [6],half-life [7],solubility [8],half-life [9],half-life [10],logD [11],solubility [12],half-life [13],logD [14],pKa [15]
CCc1cc(C)cc(CC)c1C1C(=O)N2CCCOCN2C1=O (centres undefined),10%,0%,0%,40%,0%,40%,,,,,,,,,
CCc1cc(C)cc(CC)c1C1C(=O)N2CCOCN2C1=O (centres undefined),10%,0%,0%,40%,0%,10%,,,,,,,,,
CCc1cc(C)cc(CC)c1C1C(=O)N2COC(CC)CN2C1=O (centres undefined),90%,90%,20%,100%,60%,100%,,,,,,,,,
Cc1cc(C)c(C2C(=O)N3CCOCCN3C2=O)c(Br)c1,40%,0%,0%,40%,0%,90%,,,,,,,,,
CCc1cc(C)cc(CC)c1C1C(=O)N2COC(C)CN2C1=O (centres undefined),90%,40%,20%,100%,10%,60%,,,,,,,,,
CCc1cc(C)cc(CC)c1C1C(=O)N2C[C@H]3COC[C@H]3CN2C1=O (some centres undefined),100%,100%,0%,100%,40%,90%,,,,,,,,,
CCc1cc(I)cc(CC)c1C1C(=O)N2CCOCCN2C1=O,0%,0%,0%,0%,0%,0%,,,,,,,,,
COc1cc(C)cc(Br)c1C1C(=O)N2CCOCCN2C1=O,60%,20%,20%,60%,10%,100%,,,,,,,,,
C#Cc1cc(C)cc(C)c1C1C(=O)N2CCOCCN2C1=O,100%,80%,40%,100%,50%,90%,,,,,,,,,
CCc1cc(C)cc(CC)c1C1C(=O)N2CCC(C)(O)CCN2C1=O,90%,100%,90%,80%,80%,100%,,,,,,,,,
CCc1cc(CC)c(C2C(=O)N3CCOCCN3C2=O)c(CC)c1,40%,40%,0%,60%,0%,60%,,,,,,,,,
C#Cc1cc(C)c(C2C(=O)N3CCOCCN3C2=O)c(CC)c1,20%,20%,10%,20%,0%,10%,,,,,,,,,
C#Cc1cc(C)cc(OC)c1C1C(=O)N2CCOCCN2C1=O,90%,20%,0%,0%,0%,100%,,,,,,,,,
Cc1cc(C)c(C2C(=O)N3CCOCCN3C2=O)c(C2CC2)c1,60%,0%,0%,90%,0%,50%,,,,,,,,,
CCc1cc(C)cc(CC)c1C1C(=O)N2CCOC(C)CN2C1=O (centres undefined),90%,60%,0%,40%,0%,90%,,,,,,,,,
CCc1cc(C)cc(CC)c1C1C(=O)N2C[C@H]3CC[C@@H](CN2C1=O)O3 (some centres undefined),80%,40%,0%,80%,0%,80%,,,,,,,,,
CCc1cccc(CC)c1C1C(=O)N2CCOCCN2C1=O,90%,0%,0%,0%,0%,0%,,,,,,,,,

# Source: ChEMBL document CHEMBL3045901, “Aryldiones incorporating a [1,4,5]oxadiazepane ring. Part 2: chemistry and biology of the cereal herbicide pinoxaden” (Pest Manag Sci, 2011)
